SMILES strings stand for the structures.

This test concerns beta-TC6 cells. Briefly: Insulin HTRF assay (relative activity Ar) in beta-TC6 cells. The class given is cell-based, mouse. The note with it: Mus musculus, Beta-TC6, 4 h, insulin HTRF, supernatant of beta-TC6 cells, incubation with test compound at 37°C for 2, 3, 4h; read-out: Ar (relative activity). From the text: For further screening of compounds derived from compounds described above for their ability to regulate insulin release an insulin HTRF® (Homogeneous Time-Resolved Fluorescence; Cisbio International, France) was used. This assay is based on two antibodies against insulin binding to different epitopes of insulin. One of these antibodies is coupled to Europium (Ab-Eu-Cryptate) and the other one to the fluorophore XL665 (Ab-XL665). If the insulin is secreted into the supernatant of cell culture, both antibodies can bind to insulin and come therefore into close proximity, which allows upon excitation that energy transfer between (FRET) the long-life fluorescent donor Europium (cryptate) and the acceptors XL665. FRET increases proportionally with insulin concentration.
The automated assay protocol is as follows: • On day 1, 15k beta-TC6 cells per well were seeded for 24 or 48 h in 50 µL complete medium. On day 2 or respective on day 3, the medium is removed and cells are washed with 60 µL 1xPBS and 20 µL induction buffer is added using BioTek washer. Subsequently, 10 µL Sunitininb (5 -µM f.c.) or the test compound in induction buffer; 0.5% f.c. DMSO (CyBi-well) is transferred to the cells. The cells are then incubated at 37°C for 2, 3, 4h.
First 10 µL supernatant is transferred from the cell plates in HTRF plates (CyBi-well). 10 µL of 0, 1, 2, and 4 ng/ml insulin standard controls in assay medium is used as a control. To each well 10 µL of combined 1:25 Ab-XL665 (Acc) and 1:20 Ab-Eu-Cryptate (WellMate) are added and incubated for 120 min at RT in the dark. Finally HTRF is measured on ViewLux ultra high throughput microplate imager (PerkinElmer).
The evaluation software DataFactoty derives relative activities Ar according to the following equation: Ar = (V-R(0%control))/(R(100%control) -R0%control)) × 100 [formula]
The activity of the compounds was classified according to their Ar (relative activity) into the following ranges: […]
In general terms: In TR-FRET formats the signal depends on donor and acceptor labels being close together.
As for `CNc1nc2cnc(Nc3cc(OC)c(OC)c(OC)c3)cc2n1-c1cc(OC)c(OC)c(OC)c1` [Compound 482, N2-methyl-N6,1-bis(3,4,5-trimethoxyphenyl)imidazo[4,5-c]pyridine-2,6-diamine], the Emax lay in the range of 30 to 50%.
The same measure for `COc1ccc(Nc2nccc3[nH]c(-c4ccc5c(c4)OCCO5)nc23)cc1OC` [Compound 411, 2-(2,3-dihydro-1,4-benzodioxin-6-yl)-N-(3,4-dimethoxyphenyl)-1H-imidazo[4,5-c]pyridin-4-amine]: 50 to 100%.
Next, `CNc1nc2cnc(Nc3cccc(C(C)=O)c3)cc2n1-c1ccccc1` [Compound 517, 1-[3-[[2-(methylamino)-1-phenyl-imidazo[4,5-c]pyridin-6-yl]amino]phenyl]ethanone]: 50 to 100%.
For the molecule `COc1ccc(-c2nc3c(Nc4cc(OC)c(OC)c(OC)c4)nccc3[nH]2)cc1` [Compound 389, 2-(4-methoxyphenyl)-N-(3,4,5-trimethoxyphenyl)-1H-imidazo[4,5-c]pyridin-4-amine], the Emax is 50 to 100%.
The same measure for `COc1cccc(Nc2nccc3[nH]c(-c4ccco4)nc23)c1` [Compound 464, 2-(2-furyl)-N-(3-methoxyphenyl)-1H-imidazo[4,5-c]pyridin-4-amine]: 30 to 50%; for `Cn1c(Nc2ccccc2)nc2cnc(Nc3ccccn3)cc21` [Compound 637, 1-methyl-N2-phenyl-N6-(2-pyridyl)imidazo[4,5-c]pyridine-2,6-diamine]: 30 to 50%; for `CNc1nc2cnc(-c3ccc(S(C)(=O)=O)cc3)cc2n1-c1cccc(F)c1` [Compound 684, 1-(3-fluorophenyl)-N-methyl-6-(4-methylsulfonylphenyl)imidazo[4,5-c]pyridin-2-amine]: 30 to 50%.
The same measure for `CN1CCN(c2cc3[nH]c(-c4cccc(C(F)(F)F)c4)cc3cn2)CC1` [Compound 4, 6-(4-methylpiperazin-1-yl)-2-[3-(trifluoromethyl)phenyl]-1H-pyrrolo[3,2-c]pyridine]: 30 to 50%.
Next, `COc1ccc(Nc2nccc3c2cc(-c2ccsc2)n3C)cn1` [Compound 275, N-(6-methoxy-3-pyridyl)-1-methyl-2-(3-thienyl)pyrrolo[3,2-c]pyridin-4-amine]: 50 to 100%; `Cn1c(-c2cccnc2)cc2cnc(Nc3ccc4c(c3)OCCO4)cc21` [Compound 84, N-(2,3-dihydro-1,4-benzodioxin-6-yl)-1-methyl-2-(3-pyridyl)pyrrolo[3,2-c]pyridin-6-amine]: 50 to 100%; `Cc1ccc(-c2nc3c(Nc4cccc(O)c4)nccc3[nH]2)cc1` [Compound 383, 3-[[2-(p-tolyl)-1H-imidazo[4,5-c]pyridin-4-yl]amino]phenol]: 50 to 100%.
For the molecule `CN(C)C(=O)c1ccc(-c2cc3cnc(Nc4cccc(N(C)C)c4)cc3n2C)cc1` [Compound 50, 4-[6-[3-(dimethylamino)anilino]-1-methyl-pyrrolo[3,2-c]pyridin-2-yl]-N,N-dimethyl-benzamide], the Emax lay within 50 to 100%.
The same measure for `CNc1nc2cnc(Nc3cccc(C(C)=O)c3)cc2n1-c1cccc(F)c1` [Compound 689, 1-[3-[[1-(3-fluorophenyl)-2-(methylamino)imidazo[4,5-c]pyridin-6-yl]amino]phenyl]ethanone]: 50 to 100%; for `Fc1cccc(Nc2cc3[nH]c(-c4cn[nH]c4)cc3cn2)c1` [Compound 119, N-(3-fluorophenyl)-2-(1H-pyrazol-4-yl)-1H-pyrrolo[3,2-c]pyridin-6-amine]: 50 to 100%; for `CC(=O)Nc1cccc(Nc2nccc3[nH]c(-c4cccc(F)c4)cc23)c1` [Compound 206, N-[3-[[2-(3-fluorophenyl)-1H-pyrrolo[3,2-c]pyridin-4-yl]amino]phenyl]acetamide]: 50 to 100%.
Next, `CNc1nc2cnc(Nc3cc(OC)c(OC)c(OC)c3)cc2n1Cc1ccc(OC)c(OC)c1` [Compound 660, 1-[(3,4-dimethoxyphenyl)methyl]-N2-methyl-N6-(3,4,5-trimethoxyphenyl)imidazo[4,5-c]pyridine-2,6-diamine]: 50 to 100%.
Next, `CNc1nc2cnc(Nc3ccc4c(c3)OCO4)cc2n1-c1cccc(C(F)(F)F)c1` [Compound 549, N6-(1,3-benzodioxol-5-yl)-N2-methyl-1-[3-(trifluoromethyl)phenyl]imidazo[4,5-c]pyridine-2,6-diamine]: 30 to 50%.
For the molecule `COc1cc(Nc2cc3c(cn2)nc(NCc2ccccc2)n3C)cc(OC)c1OC` [Compound 616, N2-benzyl-1-methyl-N6-(3,4,5-trimethoxyphenyl)imidazo[4,5-c]pyridine-2,6-diamine], the Emax lay within 50 to 100%.
Next, `Cn1c(NCC2CC2)nc2cnc(Nc3cccc(Oc4ccccc4)c3)cc21` [Compound 750, N2-(cyclopropylmethyl)-1-methyl-N6-(3-phenoxyphenyl)imidazo[4,5-c]pyridine-2,6-diamine]: 0 to 30%; `CC(=O)Nc1ccc(Nc2cc3[nH]c(-c4cnn(C)c4)cc3cn2)cc1` [Compound 121, N-[4-[[2-(1-methylpyrazol-4-yl)-1H-pyrrolo[3,2-c]pyridin-6-yl]amino]phenyl]acetamide]: over 100%; `Cn1c(-c2ccco2)nc2cnc(-c3cccc(O)c3)cc21` [Compound 736, 3-[2-(2-furyl)-1-methyl-imidazo[4,5-c]pyridin-6-yl]phenol]: 50 to 100%.
The same measure for `Cc1ccc(-c2nc3c(Nc4cccc(NS(C)(=O)=O)c4)nccc3[nH]2)cc1` [Compound 384, N-[3-[[2-(p-tolyl)-1H-imidazo[4,5-c]pyridin-4-yl]amino]phenyl]methanesulfonamide]: 30 to 50%; for `CNc1nc2cnc(Nc3ccc(OC)nc3)cc2n1-c1cccc(C(F)(F)F)c1` [Compound 546, N6-(6-methoxy-3-pyridyl)-N2-methyl-1-[3-(trifluoromethyl)phenyl]imidazo[4,5-c]pyridine-2,6-diamine]: 30 to 50%; for `FC(F)(F)Oc1cccc(-c2nc3c(NCc4ccccn4)nccc3[nH]2)c1` [Compound 445, N-(2-pyridylmethyl)-2-[3-(trifluoromethoxy)phenyl]-1H-imidazo[4,5-c]pyridin-4-amine]: 30 to 50%.
Next, `CC(C)CNc1nccc2[nH]c(-c3ccc4c(c3)OCCO4)nc12` [Compound 413, 2-(2,3-dihydro-1,4-benzodioxin-6-yl)-N-isobutyl-1H-imidazo[4,5-c]pyridin-4-amine]: 30 to 50%.
For `c1cc2[nH]c(-c3ccsc3)cc2c(Nc2ccc(N3CCOCC3)cc2)n1` [Compound 256, N-(4-morpholinophenyl)-2-(3-thienyl)-1H-pyrrolo[3,2-c]pyridin-4-amine], the Emax fell in the range of 50 to 100%.
Next, `CNc1nc2cnc(Nc3ccc(C(=O)N(C)C)cc3)cc2n1-c1ccccc1` [Compound 515, N,N-dimethyl-4-[[2-(methylamino)-1-phenyl-imidazo[4,5-c]pyridin-6-yl]amino]benzamide]: 50 to 100%; `CN(C)C(=O)c1ccc(-c2cc3c(Nc4ccc(C(N)=O)cc4)nccc3n2C)cc1` [Compound 213, 4-[4-(4-carbamoylanilino)-1-methyl-pyrrolo[3,2-c]pyridin-2-yl]-N,N-dimethyl-benzamide]: 50 to 100%.
The same measure for `COc1ccc(Nc2cc3c(cn2)nc(NCc2cccc(C)c2)n3C)cc1OC` [Compound 578, N6-(3,4-dimethoxyphenyl)-1-methyl-N2-(m-tolylmethyl)imidazo[4,5-c]pyridine-2,6-diamine]: 50 to 100%; for `CN(C)C(=O)c1ccc(-c2cc3c(N4CCOCC4)nccc3n2C)cc1` [Compound 188, N,N-dimethyl-4-(1-methyl-4-morpholino-pyrrolo[3,2-c]pyridin-2-yl)benzamide]: 0 to 30%; for `CNc1nc2cnc(Nc3ccc4c(c3)OCCO4)cc2n1-c1cc(OC)c(OC)c(OC)c1` [Compound 487, N6-(2,3-dihydro-1,4-benzodioxin-6-yl)-N2-methyl-1-(3,4,5-trimethoxyphenyl)imidazo[4,5-c]pyridine-2,6-diamine]: 50 to 100%.
Next, `Cc1cccc(Nc2cc3[nH]c(-c4cn[nH]c4)cc3cn2)c1` [Compound 113, N-(m-tolyl)-2-(1H-pyrazol-4-yl)-1H-pyrrolo[3,2-c]pyridin-6-amine]: 50 to 100%; `Cn1cc(-c2cc3cnc(Nc4ccc(S(C)(=O)=O)cc4)cc3n2C)cn1` [Compound 152, 1-methyl-2-(1-methylpyrazol-4-yl)-N-(4-methylsulfonylphenyl)pyrrolo[3,2-c]pyridin-6-amine]: over 100%.
In the case of `CC(=O)N(C)c1cccc(-c2cc3cnc(Nc4cccc(O)c4)cc3n2C)c1` [Compound 170, N-[3-[6-(3-hydroxyanilino)-1-methyl-pyrrolo[3,2-c]pyridin-2-yl]phenyl]-N-methyl-acetamide], the Emax fell in the range of 50 to 100%.

For the origin of these results see EP2818472A1, “Imidazo[4,5-c]pyridine and pyrrolo[3,2-c]pyridine compounds as G-protein-coupled receptor kinase 5 (GRK5) modulators” (Max-Planck-Gesellschaft zur Förderung der Wissenschaften …, priority 2013, dated 2014).
